Test results published in patent US20030232747A1, “Method of identifying a pharmaceutically active compound for the treatment of a condition caused by altered expression of the insulin receptor” (priority 2002, published 2003).

Columns and labels:
[1] = tested on: insulin receptor mRNA splice variants Ex11+/Ex11-; assay: RT-PCR and densitometric analysis of insulin receptor mRNA splice variants in penile tissue after castration and testosterone replacement; assay type: in vivo, rat
Description: Tissue samples (100-200 mg) were pulverized in liquid nitrogen. Total RNA was isolated using guanidium thocyanate, phenol-chloroform extraction (pecLab, Erlangen, Germany). The RNA was precipitated with isopropanol at −20° C. for 2 h, washed with 75% ethanol, dissolved in diethylpyrocarbonate water and quantified spectrometrically at 260 nm. The ratio of absorption of all preparations was between 1.8 and 2.0. To ensure that concentration was identical in each sample, the intensity of 28 sRNA was compared on an 1% agarose gelectrophoresis after ethidium bromide staining. Total RNA was stored at −80° C. until further use.
First strand cDNA synthesis was carried out using a commercially available kit (Gibco BRL). Briefly, 4 μg of total RNA was primed with 0,5 μg of oligo(dT)12-18 and incubated 10 min at 70° C. For each sample lx first strand puffer, 0,2M DTT, 10 mM dNTP's and 200U of Superscript II reverse transcriptase were added. Reverse transcription was performed at 42° C. for 50 min and stopped by heating for 15 min. at 70° C. The resulting cDNA templates were stored at −20° C. or directly used for PCR.
After a denaturation period of 3 min the PCR reaction was followed by 35 cycles of 95° C. for 60 sec., 60° C. for 60 sec. and 72° C. for 60 sec. PCR was performed with 6 μl cDNA, 10 mM of each dNTP, 5U Taq-Polymerase (Biotherm) and 50 pmol of both sense and antisense primers in PCR buffer. The final volume of each reaction was 50 μl. Reaction products (15 μl) were run on a 2.5% agarose gel. Primers used for PCR were: […]
Densitometric analysis of the insulin receptor mRNA splice variant levels was performed using the Image Quant 5.0 software.
For the proportion of the two insulin receptor variant mRNA levels, significance of the difference of the mean values was determined by unpaired student's t-test. The threshold for signigicance was set at p<0.05.
Pellets for testosterone-or placebo-implantation were received from Innovative Research of America, Sarasota, Fla., USA. […]

[2] = Organ weights after castration and testosterone replacement in young rats; assay type: in vivo, rat
Description: Pellets for testosterone-or placebo-implantation were received from Innovative Research of America, Sarasota, Fla., USA. To evaluate the effects of castration and testosterone replacement male wistar rats (3 months, n=21) were divided into three groups: Group 1, intact (shame operated, given a placebo-pellet by implantation under the dorsal skin, n=7), group 2, castrated (implantation of placebo-pellet, n=7) and group 3, castrated, but given a testosterone-implantate of 15 mg (n=7). 3 weeks after treatment rats were killed and penile tissue as well as blood samples were treated as described in example 1. The experimental study was conducted in accordance with the general federal law on the care and use of laboratory animals.
It was noted that the level of testosterone in the serum of young versus old rats were 4.436±1.1 and 0.57±0.17 ng/ml (mean±SD, n=4) respectively, pointing to a drop in the level of testosterone in circulation of aged animals. This is in agreement with Zirkins lab (Zirkin et al., Exp. Gerontol. 32:529-537 (1997); Zirkin and Chen, Biol. Reprod. 63:977-981 (2000)). In order to discern if the observed ageing related alteration in the expression of two splice variants of insulin receptor mRNA could be due to a declining androgen level in the ageing rats, we have performed orchiedectomy on young rats. One group of castrated rats received androgen releasing subcutanous implant. […] The effect of castration and andorgen-replacement of the insulin receptor mRNA expression in penile tissue of young rats is presented in FIG. 4a. […] Following castration, the appearance of the smaller splice variant was observed, the pattern resembling the old animals.

[3] = young castrated rats with androgen supplementation (testosterone implant 15 mg), 3 weeks, FIG. 4b
[4] = young (3 months) castrated male wistar rats, testosterone implant 15 mg, 3 weeks after treatment, n=7

Compound: C[C@]12CC[C@H]3[C@@H](CCC4=CC(=O)CC[C@@]43C)[C@@H]1CC[C@@H]2O [testosterone]
- Relative proportion of Ex11+ insulin receptor mRNA in penis [1, 3]: 22.8%
- Relative proportion of Ex11- insulin receptor mRNA in penis [1, 3]: 77.2%
- Appearance of the smaller insulin receptor splice variant (Ex11-) in penile tissue (in words) ([1]; young castrated rats with androgen supplementation, FIG. 4a): this isoform persisted
- Penis weight in relation to body weight [2, 4]: 78.55 ± 5.54 mg/100 g body weight
- Prostate weight in relation to body weight [2, 4]: 92.37 ± 33.89 mg/100 g body weight
- Effect on castration-induced reduction of penis and prostate weight (in words) ([2]; young castrated rats, testosterone replacement): induced a reversal of this effect in both organs
